# What was measured:
# [1] = molecular target: T1, serotonin reuptake (5HT uptake) (Rattus norvegicus, UniProt P31652); experiment: Serotonin reuptake inhibition (5HT uptake inhibition) in rat brain synaptosomes; assay type: biochemical; settings: synaptosomes from male rats' brains
# T1 construct: These vesicular particles were isolated from the hypothalamus of male rats' brains for 5HT uptake; from tissue; host or cells: rat brain synaptosomes (P2 fraction; cerebral cortex / hypothalamus of male rats)
# T1 sequence (P31652 whole entry): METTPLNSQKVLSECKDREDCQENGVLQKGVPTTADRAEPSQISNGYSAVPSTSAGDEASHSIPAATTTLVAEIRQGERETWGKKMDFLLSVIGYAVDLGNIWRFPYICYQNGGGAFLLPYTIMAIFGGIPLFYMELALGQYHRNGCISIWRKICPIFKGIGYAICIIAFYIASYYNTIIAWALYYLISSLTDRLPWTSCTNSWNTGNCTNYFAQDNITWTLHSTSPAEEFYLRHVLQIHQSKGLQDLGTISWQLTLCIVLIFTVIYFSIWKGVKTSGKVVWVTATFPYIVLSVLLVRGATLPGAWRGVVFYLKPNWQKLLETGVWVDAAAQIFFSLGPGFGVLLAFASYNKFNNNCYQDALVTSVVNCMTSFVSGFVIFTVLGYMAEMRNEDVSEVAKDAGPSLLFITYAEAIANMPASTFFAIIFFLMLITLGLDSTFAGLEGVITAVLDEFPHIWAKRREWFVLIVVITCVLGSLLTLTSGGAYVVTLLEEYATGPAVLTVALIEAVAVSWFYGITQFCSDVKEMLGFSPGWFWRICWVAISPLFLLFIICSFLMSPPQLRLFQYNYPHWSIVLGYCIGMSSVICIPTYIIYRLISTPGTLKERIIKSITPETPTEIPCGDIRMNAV
# Excerpt: a) Tests on Serotonin Reuptake Inhibition
# In order to be able to carry out these in vitro studies, synaptosomes from rats' cerebral cortices were freshly isolated. A “P2” fraction prepared according to Gray and Whittaker's instructions (E. G. Gray and V. P. Whittaker (1962) J. Anat. 76, 79-88) was used in each case. These vesicular particles were isolated from the hypothalamus of male rats' brains for 5HT uptake.
# A detailed description of the method may be found in the literature (M. Ch. Frink, H.-H. Hennies, W. Englberger, M. Haurand and B. Wilffert (1996) Arzneim.-Forsch./Drug Res. 46 (III), 11, 1029-1036).
# [2] = tested on: binding site 2 of the sodium channel (batrachotoxin (BTX) binding site); experiment: Binding test on the sodium channel, binding site 2 (BTX bond), [3H]-batrachotoxinin A20 α-benzoate as ligand; parameters: species or system rat; settings: for BTX bond, % inhibition [10 μM]: rat cerebrocortex synaptosomes, ligand 10 nM, 25° C., 120 min
# [3] = molecular target: T2, noradrenalin reuptake (NA uptake) (Rattus norvegicus, UniProt Q9WTR4); experiment: Noradrenalin reuptake inhibition (NA uptake inhibition) in rat brain synaptosomes; assay type: biochemical; settings: synaptosomes from male rats' brains
# T2 construct: These vesicular particles were isolated from the hypothalamus of male rats' brains for NA uptake; from tissue; host or cells: rat brain synaptosomes (P2 fraction; cerebral cortex / hypothalamus of male rats)
# T2 sequence (Q9WTR4 1-597): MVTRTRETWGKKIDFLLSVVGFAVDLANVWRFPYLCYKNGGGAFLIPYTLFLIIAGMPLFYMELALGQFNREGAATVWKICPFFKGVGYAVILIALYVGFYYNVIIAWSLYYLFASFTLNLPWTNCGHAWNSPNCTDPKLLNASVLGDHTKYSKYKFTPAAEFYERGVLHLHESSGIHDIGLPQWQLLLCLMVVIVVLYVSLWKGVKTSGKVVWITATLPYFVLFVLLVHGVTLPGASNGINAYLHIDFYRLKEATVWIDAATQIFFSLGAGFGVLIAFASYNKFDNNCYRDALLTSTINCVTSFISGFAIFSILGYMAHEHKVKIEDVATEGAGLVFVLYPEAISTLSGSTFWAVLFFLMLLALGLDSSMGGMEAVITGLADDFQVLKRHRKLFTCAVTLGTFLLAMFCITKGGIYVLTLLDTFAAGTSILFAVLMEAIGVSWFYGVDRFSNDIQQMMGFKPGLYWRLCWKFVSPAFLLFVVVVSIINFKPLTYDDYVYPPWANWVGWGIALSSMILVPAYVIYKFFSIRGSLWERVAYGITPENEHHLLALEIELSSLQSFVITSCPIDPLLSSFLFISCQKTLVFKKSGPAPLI
# Excerpt: b) Tests on Noradrenalin Reuptake Inhibition
# In order to be able to carry out these in vitro studies, synaptosomes from rats' cerebral cortices were freshly isolated. A “P2” fraction, prepared according to Gray and Whittaker's instructions (E. G. Gray and V. P. Whittaker (1962) J. Anat. 76, 79-88) was used in each case. These vesicular particles were isolated from the hypothalamus of male rats' brains for NA uptake.
# A detailed description of the method may be found in the literature (M. Ch. Frink, H.-H. Hennies, W. Englberger, M. Haurand and B. Wilffert (1996) Arzneim.-Frosch./Drug Res. 46 (III), 11, 1029-1036).
Compound,inhibition at 10 µM [1],"BTX bond, % inhibition [10 μM] [2]",other results
"COc1ccc(OC)c(CC(=O)N2CCC(c3cn(CC(=O)N(C)C)c4ccccc34)C2)c1 (stereo not shown) [Compound 19, 2-(3-{1-[2-(2,5-dimethoxy-phenyl)-acetyl]-pyrrolidin-3-yl}-indol-1-yl)-N,N-dimethyl-acetamide]",86%,,
"CN(C)C(=O)Cn1cc(C2CCN(C(=O)c3ccccn3)C2)c2ccccc21 (stereo not shown) [Compound 21, N,N-dimethyl-2-{3-[1-(pyridin-2-carbonyl)-pyrrolidin-3-yl]-indol-1-yl}-acetamide]",84%,,
"CCOc1ccccc1C(=O)N1CCC(c2cn(Cc3cccc(OC)c3)c3ccccc23)C1 (stereo not shown) [Compound 8, (2-ethoxy-phenyl)-{3-[1-(3-methoxy-benzyl)-1H-indol-3-yl]-pyrrolidin-1-yl}-methanone]",,88%,
"Cc1cc(C)c(S(=O)(=O)N2CCC(c3cn(CC(=O)N(C)C)c4ccccc34)C2)c(C)c1 (stereo not shown) [Compound 14, N,N-dimethyl-2-{3-[1-(2,4,6-trimethyl-benzenesulphonyl)-pyrrolidin-3-yl]-indol-1-yl}-acetamide]",,80%,
"COc1ccc(C(=O)N2CCC(c3cn(CCC(C)C)c4ccccc34)C2)cc1OC (stereo not shown) [Compound 2, (3,4-dimethoxy-phenyl)-{3-[1-(3-methyl-butyl)-1H-indol-3-yl]-pyrrolidin-1-yl}-methanone]",,93%,
CCCCn1cc(C2CCN(C(=O)c3ccc(C(F)(F)F)nc3C)C2)c2ccccc21 (stereo not shown) [Compound 3],,93%,
"CCCCC(=O)N1CCC(c2cn(CC(=O)N(CC)CC)c3ccccc23)C1 (stereo not shown) [Compound 23, N,N-diethyl-2-[3-(1-pentanoyl-pyrrolidin-3-yl)-indol-1-yl]-acetamide]",49%,,
"O=C(CN1CCC(c2cn(Cc3ccc(F)c(F)c3)c3ccccc23)C1)Nc1csc(C(F)(F)F)c1-c1ccccc1 (stereo not shown) [Compound 53, 2-{3-[1-(3,4-difluoro-benzyl)-1H-indol-3-yl]-pyrrolidin-1-yl}-N-(4-phenyl-5-trifluiommethyl-thiophen-3-yl)-acetamide]",,,"5HT uptake, % inhibition [10 μM] [1]: 55%"
"CCn1cc(C2CCN(C(=O)c3cccc(C)c3C)C2)c2ccccc21 (stereo not shown) [Compound 10, (2,3-dimethyl-phenyl)-[3-(1-ethyl-1H-indol-3-yl)-pyrrolidin-1-yl]-methanone]",,83%,
"CC(C)CCn1cc(C2CCN(C(=O)c3ccc(C(C)(C)C)cc3)C2)c2ccccc21 (stereo not shown) [Compound 6, (4-tert-butyl-phenyl)-{3-[1-(3-methyl-butyl)-1H-indol-3-yl]-pyrrolidin-1-yl}-methanone]",,91%,
"CCn1cc(C2CCN(C(=O)COc3cccc(Cl)c3)C2)c2ccccc21 (stereo not shown) [Compound 12, 2-(3-chloro-phenoxy)-1-[3-(1-ethyl-1H-indol-3-yl)-pyrrolidin-1-yl]-ethanone]",,83%,
"CN(C)C(=O)Cn1cc(C2CCN(C(=O)NCc3ccc(Cl)c(Cl)c3)C2)c2ccccc21 (stereo not shown) [Compound 17, 3-(1-dimethylcarbamoylmethyl-1H-indol-3-yl)-pyrrolidine-1-carboxylic acid 3,4-dichloro-benzylamide]",43%,,
"CCN(CC)C(=O)Cn1cc(C2CCN(CC(=O)Nc3ccc(C(F)(F)F)cc3)C2)c2ccccc21 (stereo not shown) [Compound 51, N,N-diethyl-2-(3-{1-[(4-trifluoromethyl-phenylcarbamoyl)-methyl]-pyrrolidin-3-yl}-indol-1-yl)-acetamide]",,,inhibition at 10 µM [3]: 57%
"Cc1cc(C)cc(Cn2cc(C3CCN(CC(=O)Nc4scc(C)c4C#N)C3)c3ccccc32)c1 (stereo not shown) [Compound 50, N-(3-cyano-4-methyl-thiophen-2-yl)-2-{3-[1-(3,5-dimethyl-benzyl)-1H-indol-3-yl]-pyrrolidin-1-yl}acetamide]",83%,,
"O=C(C1CCC1)N1CCC(c2c[nH]c3ccccc23)C1 (stereo not shown) [Compound 22, cyclobutyl-[3-(1H-indol-3-yl)-pyrrolidin-1-yl]-methanone]",58%,,
"COc1cccc(Cn2cc(C3CCN(C(=O)CCc4ccccc4)C3)c3ccccc32)c1 (stereo not shown) [Compound 36, 1-{3-[1-(3-methoxy-benzyl)-1H-indol-3-yl]-pyrrolidin-1-yl}-3-phenyl-propan-1-one]",42%,96%,
"CCCc1ccc(C(=O)N2CCC(c3cn(Cc4ccc(Br)cc4)c4ccccc34)C2)cc1 (stereo not shown) [Compound 7, {3-[1-(4-bromo-benzyl)-1H-indol-3-yl]-pyrrolidin-1-yl}-(4-propyl-phenyl)-methanone]",,89%,

Compound,inhibition at 10 µM [1],"BTX bond, % inhibition [10 μM] [2]",other results
CCn1cc(C2CCN(C(=O)c3ccc(C(F)(F)F)c(F)c3)C2)c2ccccc21 (stereo not shown) [Compound 9],,84%,
"CCn1cc(C2CCN(C(=O)c3ccc(Cl)c(Cl)c3)C2)c2ccccc21 (stereo not shown) [Compound 15, (3,4-dichloro-phenyl)-[3-(1-ethyl-1H-indol-3-yl)-pyrrolidin-1-yl]-methanone]",,80%,
"CCN(CC)C(=O)Cn1cc(C2CCN(C(=O)C3CCCC3)C2)c2ccccc21 (stereo not shown) [Compound 25, 2-1[3-(1-cyclopentanecarbonyl-pyrrolidin-3-yl)-indol-1-yl]-N,N-diethyl acetamide]",,,"5HT uptake, % inhibition [10 μM] [1]: 80%"
"O=C(c1ccccc1Cl)N1CCC(c2c[nH]c3ccccc23)C1 (stereo not shown) [Compound 27, (2-chloro-phenyl)-[3-(1H-indol-3-yl)-pyrrolidin-1-yl]-methanone]",70%,,
[^3H]-batrachotoxinin A20 α-benzoate [reference compound],,,"Kd ([2]; radioligand, mean±SEM, N=3 independent test series, read-out: KD value for this binding site): 0.0246 ± 0.00156 µM"
"CN(C)C(=O)Cn1cc(C2CCN(C(=S)Nc3cccc(C(F)(F)F)c3)C2)c2ccccc21 (stereo not shown) [Compound 16, N,N-dimethyl-2-{3-[1-(3-trifluoromethyl-phenylthiocarbamoyl)-pyrrolidin-3-yl]-indol-1-yl}-acetamide]",,,inhibition at 10 µM [3]: 50%
"CC(Oc1ccccc1)C(=O)N1CCC(c2cn(Cc3ccc(C#N)cc3)c3ccccc23)C1 (stereo not shown) [Compound 13, 4-(3-[1-(2-phenoxy-propionyl)-pyrrolidin-3-yl]-indol-1-ylmethyl}-benzonitrile]",,82%,
"Cc1ccc(S(=O)(=O)NC(Cc2ccccc2)C(=O)N2CCC(c3cn(CC(=O)N(C)C)c4ccccc34)C2)cc1 (stereo not shown) [Compound 29, N,N-dimethyl-2-(3-{1-[3-phenyl-2-(toluene-4-sulphonylamino)-propionyl]-pyrrolidin-3-yl)-indol-1-yl)-acetamide]",63%,,
"COc1cccc(Cn2cc(C3CCN(C(=O)c4ccc(C)cc4)C3)c3ccccc32)c1 (stereo not shown) [Compound 43, {3-[1-(3-methoxy-benzyl)-1H-indol-3-yl]-pyrrolidin-1-yl}-p-tolyl-methanone]",48%,92%,
"CCn1cc(C2CCN(C(=O)c3c(-c4ccccc4Cl)noc3C)C2)c2ccccc21 (stereo not shown) [Compound 32, [3-(2-chloro-phenyl)-5-methyl-isoxazol-4-yl]-[3-(1-ethyl-1H-indol-3-yl)-pyrrolidin-1-yl]-methanone]",,,inhibition at 10 µM [3]: 44%
"CCCc1ccc(C(=O)N2CCC(c3cn(Cc4ccc(C(F)(F)F)cc4)c4ccccc34)C2)cc1 (stereo not shown) [Compound 1, (4-propyl-phenyl)-{3-[1-(4-trifluoromethyl-benzyl)-1H-indol-3-yl]-pyrrolidin-1-yl}-methanone]",,95%,
"Cn1cc(C2CCN(C(=O)c3c(F)c(F)c(F)c(F)c3F)C2)c2ccccc21 (stereo not shown) [Compound 47, [3-(1-methyl-1H-indol-3-yl)-pyrrolidin-1-yl]-pentafluorophenyl-methanone]",46%,,
"COc1cccc(Cn2cc(C3CCN(C(=O)C=Cc4ccccc4)C3)c3ccccc32)c1 (stereo not shown) [Compound 4, 1-{3-[1-(3-methoxy-benzyl)-1H-indol-3-yl]-pyrrolidin-1-yl}-3-phenyl-propenone]",,92%,
"CN(C)C(=O)Cn1cc(C2CCN(S(=O)(=O)Cc3ccccc3)C2)c2ccccc21 (stereo not shown) [Compound 30, N,N-dimethyl-2-[3-(1-phenylmethanesulphonyl-pyrrolidin-3-yl)-indol-1-yl]-acetamide]",47%,,
"COc1cccc(Cn2cc(C3CCN(C(=O)C(C)Oc4ccccc4)C3)c3ccccc32)c1 (stereo not shown) [Compound 11, 1-{3-[1-(3-methoxy-benzyl)-1H-indol-3-yl]-pyrrolidin-1-yl}-2-phenoxy-propan-1-one]",,83%,
"Cc1oc(C(C)(C)C)cc1C(=O)N1CCC(c2cn(Cc3ccccc3C#N)c3ccccc23)C1 (stereo not shown) [Compound 33, 2-{3-[1-(5-tert-butyl-2-methyl-furan-3-carbonyl)pyrrolidin-3-yl]-indol-1-ylmethyl)-benzonitrile]",87%,89%,
"O=C(c1cccc(F)c1F)N1CCC(c2cn(Cc3ccc(C(F)(F)F)cc3)c3ccccc23)C1 (stereo not shown) [Compound 5, (2,3-difluoro-phenyl)-{3-[1-(4-trifluoromethyl-benzyl)-1H-indol-3-yl]-pyrrolidin-1-yl}-methanone]",,92%,
